In patent publication US20230103791A1 (GLAXOSMITHKLINE INTELLECTUAL PROPERTY DEVELOPMENT LIMITED, priority 2019, published 2023):

Molecular target: T1, human Nav1.8 (Homo sapiens, UniProt Q9Y5Y9)
T1 construct: expressed in transfected cells; host or cells: HEK293 (HEK293-Nav1.8)
Assay: Nav1.8 sodium channels assay, QPatch 48 HTX electrophysiology in HEK293-Nav1.8 cells
Type: cell-based
Conditions: at least one set of experimental runs; read-out: average pIC50 value against Nav1.8 (converted)
In short: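 HEK293 cells co-expressing human Nav1.8, Navβ1 and TREK1 were voltage-clamped on QPatch 48 HTX. The V1/2 protocol ran at 0.07 Hz: hold −100 mV, 20 ms to 0 mV, 8 s at −46 mV, 20 ms at −100 mV, then 20 ms at 0 mV (P2). P2 current was fitted over 6-8 concentrations for IC50, with vehicle wells used to correct for run-down.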

T1 sequence (Q9Y5Y9 whole entry): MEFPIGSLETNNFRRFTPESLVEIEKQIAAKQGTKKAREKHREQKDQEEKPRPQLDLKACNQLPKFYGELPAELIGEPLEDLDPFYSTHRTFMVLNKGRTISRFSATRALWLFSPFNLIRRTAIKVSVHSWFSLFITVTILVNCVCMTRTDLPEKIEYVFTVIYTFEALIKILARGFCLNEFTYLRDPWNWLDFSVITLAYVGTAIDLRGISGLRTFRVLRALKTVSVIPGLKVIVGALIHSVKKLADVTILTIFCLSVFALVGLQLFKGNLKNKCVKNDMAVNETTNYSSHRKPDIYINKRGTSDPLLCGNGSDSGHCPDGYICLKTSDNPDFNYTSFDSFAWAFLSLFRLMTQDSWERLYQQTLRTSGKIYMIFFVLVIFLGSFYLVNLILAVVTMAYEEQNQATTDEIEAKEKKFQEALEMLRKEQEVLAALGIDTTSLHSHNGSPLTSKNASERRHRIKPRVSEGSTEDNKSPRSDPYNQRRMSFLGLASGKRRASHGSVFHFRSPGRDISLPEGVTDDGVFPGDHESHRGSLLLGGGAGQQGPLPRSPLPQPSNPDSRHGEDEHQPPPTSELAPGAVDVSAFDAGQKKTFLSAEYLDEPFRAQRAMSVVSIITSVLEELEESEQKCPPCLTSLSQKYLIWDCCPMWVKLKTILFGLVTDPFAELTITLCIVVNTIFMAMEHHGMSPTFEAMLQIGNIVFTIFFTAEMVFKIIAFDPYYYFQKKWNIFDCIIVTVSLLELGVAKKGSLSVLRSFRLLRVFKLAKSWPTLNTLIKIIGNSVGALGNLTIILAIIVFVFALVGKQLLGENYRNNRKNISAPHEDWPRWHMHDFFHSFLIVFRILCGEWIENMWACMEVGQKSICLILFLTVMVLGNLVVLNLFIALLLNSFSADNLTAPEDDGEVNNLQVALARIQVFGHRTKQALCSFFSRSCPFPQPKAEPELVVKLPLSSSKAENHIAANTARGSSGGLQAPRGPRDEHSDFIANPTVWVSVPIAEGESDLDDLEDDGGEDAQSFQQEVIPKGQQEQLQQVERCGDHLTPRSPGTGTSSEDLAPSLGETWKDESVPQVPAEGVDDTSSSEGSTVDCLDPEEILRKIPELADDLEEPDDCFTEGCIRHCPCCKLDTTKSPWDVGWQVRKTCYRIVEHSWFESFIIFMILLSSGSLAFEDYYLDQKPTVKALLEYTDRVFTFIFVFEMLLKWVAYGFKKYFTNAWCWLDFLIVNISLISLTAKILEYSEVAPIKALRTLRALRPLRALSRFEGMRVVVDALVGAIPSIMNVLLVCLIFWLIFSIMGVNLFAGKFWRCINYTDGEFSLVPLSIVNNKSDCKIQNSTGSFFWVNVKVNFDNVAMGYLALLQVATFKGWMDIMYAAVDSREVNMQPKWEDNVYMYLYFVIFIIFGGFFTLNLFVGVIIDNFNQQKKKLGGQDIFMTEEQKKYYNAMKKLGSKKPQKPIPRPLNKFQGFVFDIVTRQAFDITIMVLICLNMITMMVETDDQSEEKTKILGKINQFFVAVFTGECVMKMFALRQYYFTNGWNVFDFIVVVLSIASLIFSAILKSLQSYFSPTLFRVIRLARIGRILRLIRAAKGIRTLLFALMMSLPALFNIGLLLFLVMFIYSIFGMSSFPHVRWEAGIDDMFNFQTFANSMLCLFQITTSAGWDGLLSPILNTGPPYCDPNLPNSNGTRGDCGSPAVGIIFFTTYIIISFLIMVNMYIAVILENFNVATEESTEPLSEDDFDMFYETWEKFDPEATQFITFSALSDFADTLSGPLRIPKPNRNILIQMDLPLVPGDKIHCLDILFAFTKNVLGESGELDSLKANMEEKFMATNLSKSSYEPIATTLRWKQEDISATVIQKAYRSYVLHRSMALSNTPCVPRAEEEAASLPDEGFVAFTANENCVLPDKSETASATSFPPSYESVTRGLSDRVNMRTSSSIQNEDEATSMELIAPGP
T1 sequence (Q07699 19-218 partner): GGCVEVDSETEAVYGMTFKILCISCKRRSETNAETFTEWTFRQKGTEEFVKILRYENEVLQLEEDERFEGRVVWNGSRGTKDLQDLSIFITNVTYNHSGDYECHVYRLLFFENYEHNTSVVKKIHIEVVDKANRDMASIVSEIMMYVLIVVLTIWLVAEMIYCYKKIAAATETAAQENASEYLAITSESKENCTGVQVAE

IC50 [µM]	SMILES
≤ 0.1	Cc1[nH]c(=O)ccc1N1CN(c2ccc(F)cc2C(C)C)c2nc(C(F)(F)F)ccc2C1=O [Example 212, 1-(4-fluoro-2-isopropylphenyl)-3-(2-methyl-6-oxo-1,6-dihydropyridin-3-yl)-7-(trifluoromethyl)-2,3-dihydropyrido[2,3-d]pyrimidin-4(1H)-one]
0.126 to 0.631	Cc1[nH]c(=O)ccc1N1CN(c2ccc(F)cc2C(C)C)c2ncc(Cl)cc2C1=O [Example 213, 6-chloro-1-(4-fluoro-2-isopropylphenyl)-3-(2-methyl-6-oxo-1,6-dihydropyridin-3-yl)-2,3-dihydropyrido[2,3-d]pyrimidin-4(1H)-one]
≤ 0.1	Cc1cc(F)ccc1N1CN(c2ccc(=O)[nH]c2C)C(=S)c2ccc(C(F)(F)F)cc21 [Example 214, 5-(1-(4-fluoro-2-methylphenyl)-4-thioxo-7-(trifluoromethyl)-1,4-dihydroquinazolin-3(2H)-yl)-6-methylpyridin-2(1H)-one]
0.126 to 0.631	Cc1cc(F)ccc1N1CN(c2ccc(=O)[nH]c2)C(=O)c2cc(C(F)(F)F)ccc21 [Example 215, 1-(4-Fluoro-2-methylphenyl)-3-(6-oxo-1,6-dihydropyridin-3-yl)-6-(trifluoromethyl)-2,3-dihydroquinazolin-4(1H)-one]
0.126 to 0.631	COc1cc(F)ccc1N1CN(c2ccc(=O)[nH]c2)C(=O)c2ccc(C(F)(F)F)cc21 [Example 216, 1-(4-fluoro-2-methoxyphenyl)-3-(6-oxo-1,6-dihydropyridin-3-yl)-7-(trifluoromethyl)-2,3-dihydroquinazolin-4(1H)-one]
0.794 to 7.94	Cc1cc(F)ccc1N1CN(c2ccc(=O)[nH]c2)C(=O)c2c1cccc2C(F)(F)F [Example 217, 1-(4-fluoro-2-methylphenyl)-3-(6-oxo-1,6-dihydropyridin-3-yl)-5-(trifluoromethyl)-2,3-dihydroquinazolin-4(1H)-one]
0.126 to 0.631	Cc1cc(F)ccc1N1CN(c2c[nH]c(=O)c(C)c2)C(=O)c2ccc(C(F)(F)F)cc21 [Example 218, 1-(4-fluoro-2-methylphenyl)-3-(5-methyl-6-oxo-1,6-dihydropyridin-3-yl)-7-(trifluoromethyl)-2,3-dihydroquinazolin-4(1H)-one]
0.794 to 7.94	Cc1cc(F)ccc1N1CN(c2ccc(=O)[nH]n2)C(=O)c2ccc(C(F)(F)F)cc21 [Example 219, 1-(4-fluoro-2-methylphenyl)-3-(6-oxo-1,6-dihydropyridazin-3-yl)-7-(trifluoromethyl)-2,3-dihydroquinazolin-4(1H)-one]
0.794 to 7.94	O=C1c2ccc(C(F)(F)F)cc2N(Cc2ccc(F)cc2)CN1c1ccc(=O)[nH]c1 [Example 220, 1-(4-fluorobenzyl)-3-(6-oxo-1,6-dihydropyridin-3-yl)-7-(trifluoromethyl)-2,3-dihydroquinazolin-4(1H)-one]
0.126 to 0.631	Cc1cc(=O)[nH]cc1N1CN(c2ccc(F)cc2C)c2cc(C(F)(F)F)ccc2C1=O [Example 221, 1-(4-fluoro-2-methylphenyl)-3-(4-methyl-6-oxo-1,6-dihydropyridin-3-yl)-7-(trifluoromethyl)-2,3-dihydroquinazolin-4(1H)-one]
0.794 to 7.94	Cc1cc(F)ccc1N1CN(c2ccc(=O)[nH]c2)C(=O)c2ccc(C#N)cc21 [Example 222, 1-(4-fluoro-2-methylphenyl)-4-oxo-3-(6-oxo-1,6-dihydropyridin-3-yl)-1,2,3,4-tetrahydro-quinazoline-7-carbonitrile]

More lines, now with the values behind:

SMILES	IC50 [µM]
CCc1cc(F)ccc1N1CN(c2ccc(=O)[nH]c2C)C(=O)c2cc(Cl)c(C#N)cc21 [Example 192, 6-chloro-1-(2-ethyl-4-fluorophenyl)-3-(2-methyl-6-oxo-1,6-dihydropyridin-3-yl)-4-oxo-1,2,3,4-tetra-hydroquinazoline-7-carbonitrile]	≤ 0.1
Cc1cc(F)ccc1N1CN(c2ccc(=O)[nH]c2C)C(=O)c2c1cc(F)c(Cl)c2F [Example 193, 6-chloro-5,7-difluoro-1-(4-fluoro-2-methylphenyl)-3-(2-methyl-6-oxo-1,6-dihydropyridin-3-yl)-2,3-dihydroquinazolin-4(1H)-one]	≤ 0.1
Cc1cc(F)ccc1N1CN(c2ccc(=O)[nH]c2C)C(=O)c2c1cc(C#N)c(Cl)c2F [Example 194, 6-chloro-5-fluoro-1-(4-fluoro-2-methylphenyl)-3-(2-methyl-6-oxo-1,6-dihydropyridin-3-yl)-4-oxo-1,2,3,4-tetra-hydroquinazoline-7-carbonitrile]	≤ 0.1
Cc1cc(C(F)(F)F)ccc1N1CN(c2ccc(=O)[nH]c2C)C(=O)c2cc(C(F)(F)F)cnc21 [Example 195, 1-(2-methyl-4-(trifluoromethyl)phenyl)-3-(2-methyl-6-oxo-1,6-dihydropyridin-3-yl)-6-(trifluoromethyl)-2,3-dihydropyrido[2,3-d]pyrimidin-4(1H)-one]	0.794 to 7.94
Cc1cc(Cl)ccc1N1CN(c2ccc(=O)[nH]c2C)C(=O)c2cc(C(F)(F)F)cnc21 [Example 196, 1-(4-chloro-2-methylphenyl)-3-(2-methyl-6-oxo-1,6-dihydropyridin-3-yl)-6-(trifluoromethyl)-2,3-dihydropyrido[2,3-d]pyrimidin-4(1H)-one]	0.126 to 0.631
Cc1cc(F)ccc1N1CN(c2ccc(=O)[nH]c2C)C(=O)c2ccc(C(F)(F)CO)cc21 [Example 197, 7-(1,1-difluoro-2-hydroxyethyl)-1-(4-fluoro-2-methylphenyl)-3-(2-methyl-6-oxo-1,6-dihydropyridin-3-yl)-2,3-dihydroquinazolin-4(1H)-one]	0.794 to 7.94
Cc1cc(F)ccc1N1CN(c2ccc(=O)[nH]c2C(C)C)C(=O)c2ccc(C(F)(F)F)cc21 [Example 198, 1-(4-fluoro-2-methylphenyl)-3-(2-isopropyl-6-oxo-1,6-dihydropyridin-3-yl)-7-(trifluoromethyl)-2,3-dihydroquinazolin-4(1H)-one]	≤ 0.1
Cc1cc(F)ccc1N1CN(c2ccc(=O)[nH]c2NCCO)C(=O)c2ccc(C(F)(F)F)cc21 [Example 199, 1-(4-fluoro-2-methylphenyl)-3-(2-((2-hydroxy-ethyl)amino)-6-oxo-1,6-dihydropyridin-3-yl)-7-(trifluoromethyl)-2,3-dihydroquinazolin-4(1H)-one]	0.126 to 0.631
Cc1[nH]c(=O)ccc1N1CN(c2ccc(F)cc2N(C)C)c2ccc(Cl)cc2C1=O [Example 200, 6-chloro-1-(2-(dimethylamino)-4-fluorophenyl)-3-(2-methyl-6-oxo-1,6-dihydropyridin-3-yl)-2,3-dihydroquinazolin-4(1H)-one]	≤ 0.1
CNc1cc(F)ccc1N1CN(c2ccc(=O)[nH]c2C)C(=O)c2cc(Cl)ccc21 [Example 201, 6-chloro-1-(4-fluoro-2-(methylamino)phenyl)-3-(2-methyl-6-oxo-1,6-dihydropyridin-3-yl)-2,3-dihydroquinazolin-4(1H)-one]	≤ 0.1
Cc1cc(C(F)(F)CO)ccc1N1CN(c2ccc(=O)[nH]c2C)C(=O)c2ccc(C(F)(F)F)cc21 [Example 202, 1-(4-(1,1-difluoro-2-hydroxyethyl)-2-methylphenyl)-3-(2-methyl-6-oxo-1,6-dihydropyridin-3-yl)-7-(trifluoromethyl)-2,3-dihydroquinazolin-4(1H)-one]	0.794 to 7.94
Cc1ccc(N2CN(c3ccc(=O)[nH]c3C)C(=O)c3ccc(C(F)(F)F)cc32)c(C)c1 [Example 203, 1-(2,4-dimethylphenyl)-3-(2-methyl-6-oxo-1,6-dihydropyridin-3-yl)-7-(trifluoromethyl)-2,3-dihydroquinazolin-4(1H)-one]	≤ 0.1
Cc1cc(F)ccc1N1CN(c2ccc[nH]c2=O)C(=O)c2ccc(C(F)(F)F)cc21 [Example 204, 1-(4-fluoro-2-methylphenyl)-3-(2-oxo-1,2-dihydropyridin-3-yl)-7-(trifluoromethyl)-2,3-dihydroquinazolin-4(1H)-one]	0.794 to 7.94
Cc1cc(F)ccc1N1CN(c2cnc(=O)[nH]c2C)C(=O)c2ccc(OC(F)(F)F)cc21 [Example 205, 1-(4-fluoro-2-methylphenyl)-3-(6-methyl-2-oxo-1,2-dihydropyrimidin-5-yl)-7-(trifluoromethoxy)-2,3-dihydroquinazolin-4(1H)-one]	≤ 0.1
Cc1ccc2c(n1)N(c1ccc(F)cc1C)CN(c1ccc(=O)[nH]c1C)C2=O [Example 206, 1-(4-fluoro-2-methylphenyl)-7-methyl-3-(2-methyl-6-oxo-1,6-dihydropyridin-3-yl)-2,3-dihydropyrido[2,3-d]pyrimidin-4(1H)-one]	0.126 to 0.631
CCc1cc(F)ccc1N1CN(c2ccc(=O)[nH]c2C)C(=O)c2cc(Cl)c(C#N)nc21 [Example 207, 6-chloro-1-(2-ethyl-4-fluorophenyl)-3-(2-methyl-6-oxo-1,6-dihydropyridin-3-yl)-4-oxo-1,2,3,4-tetrahydropyrido [2,3-d]pyrimidine-7-carbonitrile]	≤ 0.1
Cc1cc(F)ccc1N1CN(c2ccc(=O)n(C)c2C)C(=O)c2cc(C(F)(F)F)ccc21 [Example 209, 3-(1,2-dimethyl-6-oxo-1,6-dihydropyridin-3-yl)-1-(4-fluoro-2-methylphenyl)-6-(trifluoromethyl)-2,3-dihydroquinazolin-4(1H)-one]	0.126 to 0.631
Cc1cc(F)ccc1N1CN(c2ccc(=O)[nH]c2Cl)C(=O)c2cc(C(F)(F)F)ccc21 [Example 210, 3-(2-chloro-6-oxo-1,6-dihydropyridin-3-yl)-1-(4-fluoro-2-methylphenyl)-6-(trifluoromethyl)-2,3-dihydroquinazolin-4(1H)-one]	0.126 to 0.631
Cc1cc(F)ccc1N1CN(c2c(C)cc(=O)[nH]c2Br)C(=O)c2ccc(C(F)(F)F)cc21 [Example 211, 3-(2-bromo-4-methyl-6-oxo-1,6-dihydropyridin-3-yl)-1-(4-fluoro-2-methylphenyl)-7-(trifluoromethyl)-2,3-dihydroquinazolin-4(1H)-one]	0.794 to 7.94
